One may read the IC50 as the concentration that inhibits the measured activity by half.

The structures appear in SMILES notation.

The subject of one assay is PC3 cells. As to the kind of experiment: NAMPT Cell Proliferation Assay. Type of assay: cell-based. To be noted: Homo sapiens, PC-3, 120 h, 5 days incubation, cell viability by Cell Titer Glo. In outline: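 Seed PC3 at 500 cells/well (RPMI, 10% HI-FBS), attach overnight; add compound, 10-fold series 10 μM → 1×10^−5 μM; incubate 5 d, 37° C/5% CO2; luminescent viability readout; fit % inhibition sigmoidally for IC50.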
Background: Cellular ATP, detected with luciferase, serves as a proxy for viable cell number.

The next assay has as its target NAMPT (Homo sapiens, UniProt P43490). As to the kind of experiment: TR-FRET Binding Assay of NAMPT with PRPP. The following applies: with 200 μM PRPP and 2.5 mM ATP; 2 nM NAMPT, 2 nM probe, 16 hours equilibration. Summed up:
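Run in the presence of substrates (200 μM PRPP, 2.5 mM ATP) with final 2 nM NAMPT, 2 nM probe, 1 nM Tb-anti-His antibody and 2% DMSO. Mixtures equilibrated 16 h before TR-FRET measurement so test compounds could be enzymatically modified.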
A general note: TR-FRET usually uses a lanthanide donor and a delayed reading to cut background.

Assay [1] concerns the target NAMPT (human, recombinant, C-terminally His-tagged) (Homo sapiens, UniProt P43490). As to the kind of experiment: Time-Resolved Fluorescence Resonance Energy Transfer (TR-FRET) Binding Assay of NAMPT. To be noted: without substrates; 6.8 nM NAMPT, 200 nM probe, 3 hours equilibration. In outline:
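Probe displacement by compound was measured with 6.8 nM NAMPT, 200 nM Oregon Green 488-conjugated nicotinamide-competitive inhibitor probe and 1 nM Tb-anti-His antibody in 50 mM HEPES pH 7.5, 100 mM NaCl, 10 mM MgCl2, 1 mM DTT, 1% glycerol, 2% DMSO (final). After 3 h at room temperature, TR-FRET was read; IC50 from four-parameter logistic fit.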

Chain of NAMPT (human, recombinant, C-terminally His-tagged) (P43490 whole entry): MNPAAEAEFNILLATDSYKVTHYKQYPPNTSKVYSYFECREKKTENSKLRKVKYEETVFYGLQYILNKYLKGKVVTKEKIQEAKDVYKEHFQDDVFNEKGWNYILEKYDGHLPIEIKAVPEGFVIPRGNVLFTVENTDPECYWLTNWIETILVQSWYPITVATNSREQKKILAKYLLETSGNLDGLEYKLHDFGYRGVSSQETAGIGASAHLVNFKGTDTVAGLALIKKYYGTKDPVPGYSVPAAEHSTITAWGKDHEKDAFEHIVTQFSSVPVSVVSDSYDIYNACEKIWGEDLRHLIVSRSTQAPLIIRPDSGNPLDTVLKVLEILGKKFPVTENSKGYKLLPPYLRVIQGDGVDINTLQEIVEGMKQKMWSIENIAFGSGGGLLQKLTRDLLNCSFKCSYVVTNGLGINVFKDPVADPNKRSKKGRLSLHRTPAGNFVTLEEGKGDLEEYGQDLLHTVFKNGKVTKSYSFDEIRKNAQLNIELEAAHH
Chain of NAMPT (P43490 whole entry): as above

With `O=C(NCc1ccn2ccnc2c1)c1ccc(C2=CCN(C(=O)CC3CC3)CC2)o1` [Example 750, 5-[1-(cyclopropylacetyl)-1,2,3,6-tetrahydropyridin-4-yl]-N-(imidazo[1,2-a]pyridin-7-ylmethyl)furan-2-carboxamide], the IC50 in the assay on PC3 cells stood at 794 nM; on NAMPT, 1.54 nM; in assay [1] it was 1530 nM.

In the case of `CC(C)CS(=O)(=O)N1CCC(c2ncc(C(=O)NCc3ccn4ccnc4c3)s2)C1` (stereo not drawn) [Example 751, N-(imidazo[1,2-a]pyridin-7-ylmethyl)-2-{1-[(2-methylpropyl)sulfonyl]pyrrolidin-3-yl}-1,3-thiazole-5-carboxamide], the IC50 in the assay on PC3 cells stood at 755 nM; on NAMPT, 1 nM; in assay [1] it was 1240 nM.

For the molecule `O=C(NCc1ccn2ccnc2c1)c1cnc(C2CCN(S(=O)(=O)c3ccccc3)C2)s1` (stereo not drawn) [Example 752, N-(imidazo[1,2-a]pyridin-7-ylmethyl)-2-[1-(phenylsulfonyl)pyrrolidin-3-yl]-1,3-thiazole-5-carboxamide], the IC50 in the assay with PC3 cells turned out to be 6660 nM; at NAMPT, 0.77 nM; in assay [1], 5190 nM.

For `CC(C)CS(=O)(=O)N1CC=C(c2ccc(C(=O)NCc3ccn4ccnc4c3)o2)CC1` [Example 753, N-(imidazo[1,2-a]pyridin-7-ylmethyl)-5-{1-[(2-methylpropyl)sulfonyl]-1,2,3,6-tetrahydropyridin-4-yl}furan-2-carboxamide], the half-maximal inhibitory concentration (IC50) in the assay on PC3 cells turned out to be 74.6 nM; on NAMPT, 0.783 nM; in assay [1], 403 nM.

On to `CC(C)Cn1cc(-c2ccc(C(=O)NCc3cn4ccnc4cn3)s2)cn1` [Example 754, N-(imidazo[1,2-a]pyrazin-6-ylmethyl)-5-[1-(2-methylpropyl)-1H-pyrazol-4-yl]thiophene-2-carboxamide], for which the concentration for half-maximal inhibition (IC50) with PC3 cells amounted to 1.25 nM; on NAMPT, 0.51 nM; in assay [1] it was 4.92 nM.

For the molecule `CC1(Cn2cc(-c3ccc(C(=O)NCc4ccn5ccnc5c4)s3)cn2)CCN(C(=O)OC(C)(C)C)CC1` [Example 755, tert-butyl 4-[(4-{5-[(imidazo[1,2-a]pyridin-7-ylmethyl)carbamoyl]thiophen-2-yl]-1H-pyrazol-1-yl)methyl}-4-methylpiperidine-1-carboxylate], the half-maximal inhibitory concentration (IC50) is 2.49 nM with PC3 cells, 0.57 nM at NAMPT and 13 nM in assay [1].

For the molecule `O=C(NCc1ccn2ccnc2c1)c1ccc(C2CCN(C(=O)CC3CC3)C2)s1` (stereo not drawn) [Example 756, 5-[1-(cyclopropylacetyl)pyrrolidin-3-yl]-N-(imidazo[1,2-a]pyridin-7-ylmethyl)thiophene-2-carboxamide], the IC50 with PC3 cells turned out to be 18.9 nM; at NAMPT, 0.609 nM; in assay [1], 123 nM.

`O=C(NCc1ccn2ccnc2c1)c1ccc(C2CCN(C(=O)c3ccccc3Cl)C2)s1` (stereo not drawn) [Example 757, 5-[1-(2-chlorobenzoyl)pyrrolidin-3-yl]-N-(imidazo[1,2-a]pyridin-7-ylmethyl)thiophene-2-carboxamide]: the values for the IC50 (with PC3 cells; at NAMPT; in assay [1]) were 0.435 nM, 0.705 nM and 15.6 nM, respectively.

`O=C(NCc1ccn2ccnc2c1)c1ccc(C2CCN(C(=O)Cc3ccc(F)cc3)C2)s1` (stereo not drawn) [Example 758, 5-{1-[(4-fluorophenyl)acetyl]pyrrolidin-3-yl}-N-(imidazo[1,2-a]pyridin-7-ylmethyl)thiophene-2-carboxamide]: the IC50 in the assay with PC3 cells was 23.2 nM; at NAMPT, 0.61 nM; in assay [1], 132 nM.

In the case of `COc1cccc(C(=O)N2CCC(c3ccc(C(=O)NCc4ccn5ccnc5c4)s3)C2)c1` (stereo not drawn) [Example 759, N-(imidazo[1,2-a]pyridin-7-ylmethyl)-5-[1-(3-methoxybenzoyl)pyrrolidin-3-yl]thiophene-2-carboxamide], the half-maximal inhibitory concentration (IC50) worked out at 1.65 nM in the assay with PC3 cells, 0.799 nM at NAMPT and 28.5 nM in assay [1].

The record behind these values is patent US9187472B2 (AbbVie Inc., priority 2012, dated 2015).
